Experimental data as given in US20240366524A1, “COMPOSITION AND METHOD FOR TREATING OR PREVENTING INFECTIONS” (CHITOGEL LIMITED, priority 2021, published 2024).
“Also recorded” adds a separate entry of the source.

Tests used:
[1] = test system: S. aureus; assay: Planktonic growth of nasal clinical isolates (OD 595 nm, 24 h); type: cell-based
Description: (§1) The effect of glycerol on bacterial growth was determined by analysis of nasal bacterial isolates from subjects participating in the trial described in Example 3. The bacterial isolates were cultured for 24 hours in Nutrient Broth (NB) and Brain-Heart Infusion (BHI) which further contained glycerol in an amount of either 20% v/v, or 40% v/v, or 0% glycerol (control).
(§2) A total of 22 nasal clinical isolates including C. accolens (n=4), C. propinquum(n=3), C. pseudodiptheriticum (n=3), S. epidermidis (n=4), S. aureus (n=4) and P. aeruginosa (n=4) were used in this experiment. Prior to starting experiments, isolates were grown in tryptic soya agar (TSA) and incubated at 37° C. under aerobic conditions for 24 hours, except for C. accolens which was incubated for 48 hours.
(§3) Glycerol at 20% was prepared by dilution in nutrient broth (NB) media. Glycerol treatments at 20% concentrations were prepared in a 96-well microtitration plate containing 50 μL NB. A single colony of bacterial isolates such as C. accolens, C. propinquum, C. pseudodiptheriticum, S. epidermidis, S. aureus and P. aeruginosa from overnight cultures was suspended with 0.9% saline (aqueous NaCl) to McFarland standard of 0.5 and diluted 1:100 in NB growth media. Next, 50 μL of the diluted bacterial suspension was then added to the treatments in each well and incubated aerobically for 24 hours at 37° C. A negative control (media without bacteria and treatment) and untreated growth control (media with bacteria but no treatment) were used in this assay. After incubation, the planktonic bacterial growth was determined by measuring the optical density (OD) at 595 nm using microplate absorbance reader (iMark™, BIO-RAD). For each bacterial strain, six replicate experiments were performed to assess bacterial growth.

[2] = test system: C. accolens; assay: as above; type: cell-based; conditions: NB and BHI
Description: as §1, §2, §3

[3] = test system: P. aeruginosa; assay: as above; type: cell-based
Description: as §1, §2, §3

[4] = test system: C. pseudodiphtheriticum; assay: as above; type: cell-based, Corynebacterium pseudodiphtheriticum
Description: as §1, §2, §3

[5] = test system: commensal and pathogenic bacterial isolates; assay: Planktonic growth of nasal clinical isolates (OD 595 nm, 24 h), all isolates; type: cell-based
Description: as §1, §2, §3

[6] = test system: C. acnes; assay: Cellulose disk on nutrient agar survival test (Example 5); type: cell-based; conditions: 48 hours incubation, anaerobic; glycerol as 20% in water
From the text: The growth of C. acnes in the presence of glycerol, chitosan-dextran polymer (CS-DA), and a combination of glycerol and chitosan-dextran polymer (CS-DA-GLY) was investigated according to the following methodology: • Cellulose disks (approximately 1 cm in diameter) pre-soaked in C. acnes culture were placed on the surface of sterile nutrient agar plates. A test substance was placed on top of the soaked disks to allow contact with both the nutrient agar and a test substance. An untreated control agar plate contained only the soaked cellulose disk, with no test substance applied. The test substances were: (1) 20% glycerol in water; (2) a composition comprising aldehyde-derivatised dextran polymer cross linked with N-succinyl chitosan polymer, an aqueous phosphate buffer and approximately 20% v/v glycerol, prepared according to the description above in Example 2 (herein referred to as CS-DA-GLY); and (3) a composition comprising aldehyde-derivatised dextran polymer cross linked with N-succinyl chitosan polymer, and an aqueous phosphate buffer (herein referred to as CS-DA). That is, the composition of test substances (2) and (3) differ only in the presence and absence of glycerol. […] Following incubation for 112 hours 5 minutes at conditions appropriate for the microorganism, the surviving test microorganisms were recorded for each test and control plate.

[7] = test system: S. aureus; assay: Cellulose disk on nutrient agar survival test (Example 6); type: cell-based; conditions: 48 h aerobic
From the text: (§4) The growth of S. aureus and P. aeruginosa in the presence of glycerol, chitosan-dextran polymer, or a combination of glycerol and chitosan-dextran polymer, was investigated according to the following methodology: • (A) Cellulose disks (approximately 1 cm in diameter) pre-soaked in S. aureus or P. aeruginosa cultures were placed on the surface of sterile nutrient agar plates. A test substance was placed on top of the soaked disks to allow contact with both the nutrient agar and a test substance. An untreated control agar plate contained only the soaked cellulose disk, with no test substance applied. The test substances were as described in Example 5, namely: (1) 20% v/v glycerol in water; (2) CS-DA-GLY; and (3) CS-DA. All test and control cellulose disk plates were incubated for 48±1 hours at conditions appropriate for each microorganism (e.g. aerobic conditions for S. aureus and P. aeruginosa, and anaerobic conditions for C. acnes). Following incubation, the cellulose disks were each aseptically removed from the agar surface and the microorganism contents of the cellulose disks were individually extracted using sterile phosphate-buffered saline solution. Each of the resulting microorganism suspensions were serially diluted 1:10 in sterile phosphate-buffered saline solution and 1.000 mL of the appropriate dilutions were plated in singlet to sterile growth media appropriate for the target test microorganism. Following incubation for 72 hours 40 minutes at conditions appropriate for each microorganism, the surviving test microorganisms were recorded for each test and control plate. • (B) The same methodology as (A) was performed, but the cellulose disk plates additionally included the supernatant of a C. acnes culture that was grown on a substrate comprising 20% glycerol. […]

[8] = test system: P. aeruginosa; assay: as above; type: cell-based; conditions: 48 h aerobic
From the text: as §4, with “Following incubation, the cellulose disks were each aseptically removed from the agar surface and the microorganism contents of the cellulose disks were individually extracted using sterile phosphate-buffered saline solution. Each of the resulting microorganism suspensions were serially diluted 1:10 in sterile phosphate-buffered saline solution and 1.000 mL of the appropriate dilutions were plated in singlet to sterile growth media appropriate for the target test microorganism.” left out

[9] = test system: C. propinquum; assay: Planktonic growth of nasal clinical isolates (OD 595 nm, 24 h); type: cell-based, Corynebacterium propinquum
Description: as §1, §2
Glycerol at 20% was prepared by dilution in nutrient broth (NB) media. Glycerol treatments at 20% concentrations were prepared in a 96-well microtitration plate containing 50 μL NB. A single colony of bacterial isolates such as C. accolens, C. propinquum, C. pseudodiptheriticum, S. epidermidis, S. aureus and P. aeruginosa from overnight cultures was suspended with 0.9% saline (aqueous NaCl) to McFarland standard of 0.5 and diluted 1:100 in NB growth media. […] After incubation, the planktonic bacterial growth was determined by measuring the optical density (OD) at 595 nm using microplate absorbance reader (iMark™, BIO-RAD). […]

[10] = test system: S. epidermidis; assay: as above; type: cell-based, Staphylococcus epidermidis
Description: as §1, §2, §3

[11] = 20% glycerol, Nutrient Broth, 24 hours
[12] = 20% v/v glycerol, media (NB and BHI)
[13] = test set A, no C. acnes supernatant, glycerol as 20% v/v in water

**Q.** What does the source list for OCC(O)CO [glycerol]?
**A.** planktonic growth of S. aureus vs untreated growth control [1, 11]: significantly reduced; also recorded: significantly inhibit; growth of S. aureus compared to control [1, 12]: inhibited; growth of S. aureus ([1]; 40% v/v glycerol, NB and BHI): significant inhibitory effect; growth of C. accolens compared to control ([2]; 20% v/v glycerol): either unaffected or promoted; growth of C. accolens ([2]; 40% v/v glycerol): significant inhibitory effect; planktonic growth of P. aeruginosa vs untreated growth control [3, 11]: significantly inhibit; also recorded: significantly reduced; growth of P. aeruginosa compared to control [3, 12]: inhibited; growth of P. aeruginosa ([3]; 40% v/v glycerol, NB and BHI): significant inhibitory effect; planktonic growth of C. pseudodiphtheriticum vs untreated growth control [4, 11]: significantly inhibit; also recorded: significantly reduced; growth of C. pseudodiphtheriticum compared to control [4, 12]: inhibited; growth of C. pseudodiphtheriticum ([4]; 40% v/v glycerol, NB and BHI): significant inhibitory effect; growth of commensal and pathogenic bacterial isolates ([5]; 20% glycerol, BHI broth): significantly inhibit; growth of commensal and pathogenic bacterial isolates ([5]; 40% glycerol, BHI broth): significantly inhibit; growth of commensal and pathogenic bacterial isolates ([5]; 40% glycerol, NB): significantly inhibit; growth (percent survival) of C. acnes compared to untreated control [6]: supported; growth of S. aureus compared to control [7, 13]: decrease; growth of S. aureus compared to control ([7]; test set B, comprising C. acnes supernatant (method b251: culture grown on 20% glycerol substrate)): decrease; growth of S. aureus compared to control ([7]; test set C, comprising C. acnes supernatant (method b251: glycerol-free substrate; b254: grown in the presence of glycerol)): decrease; growth of P. aeruginosa compared to control [8, 13]: decrease; growth of P. aeruginosa compared to control ([8]; test set C, with C. acnes supernatant (grown in the presence of glycerol)): much more substantial decrease; also recorded: reduction; growth of C. propinquum compared to control [9, 12]: inhibited; growth of C. propinquum ([9]; 40% v/v glycerol, NB and BHI): significant inhibitory effect; planktonic growth of S. epidermidis vs untreated growth control [10, 11]: significantly inhibit; also recorded: significantly reduced; growth of S. epidermidis compared to control [10, 12]: inhibited; growth of S. epidermidis ([10]; 40% v/v glycerol, NB and BHI): significant inhibitory effect
